# Data reported in US8129532B2, “Amino(oligo)thiophene dyes, preparation thereof, and optical methods of use” (The University of Connecticut, priority 2007, dated 2012).
# What was measured:
# [1] = One-photon absorption and emission spectra in multilamellar lipid vesicles, water and ethanol; assay type: physicochemical
# Source text: […] The column indicating relative signal change for one-photon fluorescence also lists the excitation light source used and the lower bounds of the long-pass emission detected.
# Absorption and emission spectra were obtained for a series of dyes with different acceptors: pyridinium (PY-1261), quinolinium (PY-212), and acridinium (PY-2240).
# [2] = One-photon fluorescence relative signal change per 100 mV; details: excitation / long-pass emission (nm) given
# Source text: The left-most data columns of Table 1 are the absorption and emission maxima for one photon fluorescence in soybean multi-lamellar lipid vesicles used to mimic the membrane environment. The column indicating relative signal change for one-photon fluorescence also lists the excitation light source used and the lower bounds of the long-pass emission detected.
# dye-stained cells = experiment: Confocal fluorescence intensity and bleaching of dye-stained cells; assay type: cell-based; details: compared with PY-1261
# [3] = system: layer V pyramidal neurons; experiment: Voltage-sensitive dye imaging of action potentials in intracellularly stained pyramidal neurons in brain slices; assay type: cell-based, Sprague Dawley rats
# Source text: Sprague Dawley rats (P21-42) were anesthetized with isoflurane, decapitated, and the brains were removed with the head immersed in ice-cold, artificial cerebrospinal fluid (ACSF), according to an animal protocol approved by the Center for Laboratory Animal Care, University of Connecticut. Brain slices (300 μm) were cut from frontal lobes in the coronal plane. ACSF contained (in mM) 125 NaCl, 26 NaHCO3, 10 glucose, 2.3 KCl, 1.26 KH2PO4, 2 CaCl2 and 1 MgSO4, pH 7.4. Whole-cell recordings were made from visually identified layer V pyramidal neurons on the medial part of the slice. Intracellular solution contained (in mM) 135 K-gluconate, 2 MgCl2, 3 Na2-ATP, 10 Na2-phosphocreatine, 0.3 Na2-GTP and 10 Hepes (pH 7.3, adjusted with KOH). Electrical signals were amplified with Multiclamp 700A and digitized with two input boards: (1) Digidata Series 1322A (Axon Instruments) at 5 kHz, and (2) Neuroplex (RedShirtImaging) at 2.7 kHz sampling rate. Only cells with a membrane potential more hyperpolarized than −50 mV, and action potential amplitudes exceeding 80 mV (measured from the base line) were included in this study. All experiments were performed on layer 5 cortical pyramidal cells at 34° C.
# Blue dyes were stored in ethanol stock solution at −20° C. On the day of the recording blue dyes were dissolved in standard K-gluconate based intracellular solution. A loading pipette was filled with two varieties of the same intracellular solution; one with and one without dye. Dye-free solution was occupying the very tip of the pipette, while the back of the pipette lumen was microloaded with dye-rich solution. The purpose of dye-free solution in the tip of the patch pipette was to prevent dye-leak during the maneuver through brain slice tissue. VSD styryl dyes are lipophilic and bind indiscriminately and irreversibly to all membranes around the neuron of interest. Even a small amount of dye that leaks out of the pipette during the formation of the gigaohm seal, can generate strong fluorescent background. Fluorescent light emanating from surrounding tissue has a devastating effect on dendritic optical signals. Elimination of the background fluorescence is critical for dendritic voltage imaging. How much dye-free solution one should put in the tip depends on time period between the submersion of the patch pipette into the recording chamber and formation of the gigaohm seal. The faster one can perform this maneuver the less dye-free solution she needs to achieve optimal staining.
# Blue VSD were injected at room temperature for 25-60 minutes. The filling pipette was carefully pulled out (outside-out patch) and brain slices were left to incubate for 20-120 minutes at room temperature. Just before optical recordings the cells were re-patched with dye-free pipette at the physiological temperature (34° C.).
# Voltage-sensitive dye imaging was performed on a Zeiss Axioskope 2FS microscope equipped with NeuroCCD camera (RedShirtImaging). We used Zeiss 40× objective IR-Achroplan 0.80 W. The size of the square visual field captured by NeuroCCD camera was 384×384 um. In the place of the arc lamp (normally used for epi-illumination), we inserted a 200 μm fiber optic guide with a collimator. Laser beam was focused on the other side of the fiber optic guide using a microscope objective-like lens. This arrangement produced a motionless spot of laser light (˜25 μm in diameter) at the object plane. An illuminated section of the brain slice, projected onto the NeuroCCD camera, covered approximately 25 pixels when used with 40× objective lens. At this magnification, one pixel sampled a 4.8×4.8 square in the object plane. A region of interest (ROI) was brought into the laser spot using X-Y microscope platform. The laser beam was interrupted by an electro-programmable shutter (Uniblitz®). Attention was made to limit the exposure time during the recording and positioning of the neuron.
# [4] = system: layer V pyramidal neurons; experiment: Toxicity / photodynamic damage: AP half-width during optical recording
# Source text: S. Antic, G. Major, D. Zecevic, “Fast optical recordings of membrane potential changes from dendrites of pyramidal neurons”, Journal of Neurophysiology, 82, 1615-1621 (1999). Accumulation of reactive oxygen species (free radicals), which interact with and damage neuronal plasmalemma, is the most likely mechanism. J. B. Feix, B. Kalyanaraman, “Production of singlet oxygen-derived hydroxyl radical adducts during merocyanine-540-mediated photosensitization: analysis by ESR-spin trapping and HPLC with electrochemical detection”, Archives of Biochemistry & Biophysics, volume 291, pages 43-51 (1991). High intensity illumination during optical recording sessions excites large number of membrane bound dye molecules. Since styryl dyes have tendency to penetrate deep into the lipid bilayers (E. Fluhler, V. G. Burnham, L. M. Loew, “Spectra, membrane binding, and potentiometric responses of new charge shift probes”, Biochemistry, 24, 5749-5755 (1985)), free radicals are produced literally inside the neuronal membrane. […] S. D. Antic, “Action potentials in basal and oblique dendrites of rat neocortical pyramidal neurons”, Journal of Physiology 550, 35-50 (2003). […] Since dye loading was always done at room temperature (21° C.) and re-patching at 34° C., we could not compare AP shape and size before and after dye loading. Therefore, in order to check the extent of dye toxicity we designed a group of experiments in which neurons were injected and incubated at 34° C. During the dye injection (loading phase), in regular time intervals (3-5 min) direct current pulses was used to slowly charge the membrane and trigger an AP (FIG. 14A). Identical current pulse was then applied at the end of dye loading phase, just before the electrode pull-out (FIG. 14B) and after the 50-90 min incubation period (FIG. 14C, re-patch). […] To avoid AP jitter in optical recordings we used shorter and stronger current pulses (FIG. 14D, E, F, insets). However, from time to time we returned to AP-testing current injection protocol (FIG. 14D, E), while keeping the count on the number of cumulative high-intensity light exposures (# sweeps). […] Additional experimental details can be found in Ping Yan, Aifang Xie, Meide Wei, and Leslie M. Loew, “Amino(oligo)thiophene-Based Environmentally Sensitive Biomembrane Chromophores”, Journal of Organic Chemistry, published on web Jul. 30, 2008.
# [5] = compared with unfluorinated PY-1261
# [6] = one photon, soybean multi-lamellar lipid vesicles
"absorbance extinction coefficient of dye-stained lipid vesicle suspensions [1, 5]","effect of fluorination on spectra [1, 5]","1PF Abs. Max [1, 6] [nm]","1PF Em. Max [1, 6] [nm]",half time for bleaching of dye-stained cells (dye-stained cells),Absorbance ethanol ([1]; ethanol) [nm],Emission ethanol ([1]; ethanol) [nm],Absorbance MLV ([1]; multilamellar lipid vesicles) [nm],Emission MLV ([1]; multilamellar lipid vesicles) [nm],Absorbance water ([1]; water) [nm],Compound,1PF Change (ΔF/F-100 mv) [2],intensity of fluorescence of stained cells (dye-stained cells; confocal microscope),"AP-associated optical signal, single example (base line-to-peak) ([3]; FIG. 11, basal dendrite) [% ΔF/F]",S/N ratio at 532 nm ([3]; laser spot 532 nm),"slope of linear fit, AP half-width versus cumulative sweeps ([4]; FIG. 15A, 15C)",sweeps recorded before AP half-width grew by more than 15% from control ([4]; n=12) [sweeps]
increases,shifts the spectra to the red,565,706,increases the half time for bleaching,,,,,,CCN(CC)c1ccc(-c2ccc(/C=C(\F)c3cc[n+](CCC[N+](CC)(CC)CC)cc3)s2)s1 [PY-3008],1.0E−001; 650/>715 ΔF/F-100 mv,increases,,,,
,,,,,511,718,457,670,440,"Di-1-ANEPEQ [JPW-3028, reference compound]",,,5,{at 532 nm = 5.95 ± 2.16},0.0027,86±28
